Laboratory results reported in patent US7273848B2, “Apolipoprotein A-I agonists and their use to treat dyslipidemic disorders” (priority 1997, dated 2007).
Non-standard residues stand in square brackets, D forms with d. Residues, ends and D or L forms follow the SMILES beside them. No end group written: not given here. Aib = CC(C)(N)C(=O)O

target: T1, LCAT (purified from human plasma) (Homo sapiens, UniProt P04180); assay: LCAT activation assay; assay type: biochemical; conditions: LCAT activation as compared with native human ApoA-I (= 100%), equivalent masses
T1 construct: from tissue; host or cells: human plasma
T1 sequence (P04180 25-440): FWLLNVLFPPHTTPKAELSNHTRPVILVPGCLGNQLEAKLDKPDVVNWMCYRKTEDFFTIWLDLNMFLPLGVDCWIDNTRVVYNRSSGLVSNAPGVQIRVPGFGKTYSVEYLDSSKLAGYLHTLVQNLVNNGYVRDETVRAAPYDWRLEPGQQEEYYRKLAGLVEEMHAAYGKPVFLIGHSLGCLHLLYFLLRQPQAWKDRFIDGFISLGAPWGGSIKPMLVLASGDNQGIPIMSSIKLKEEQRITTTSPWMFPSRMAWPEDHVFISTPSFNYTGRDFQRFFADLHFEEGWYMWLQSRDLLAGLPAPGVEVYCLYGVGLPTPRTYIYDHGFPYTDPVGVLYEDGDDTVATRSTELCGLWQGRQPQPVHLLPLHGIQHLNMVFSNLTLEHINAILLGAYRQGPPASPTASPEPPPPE
Description: The peptides synthesized as described in Section 6, supra, were analyzed in vitro for their ability to activate LCAT. In the LCAT assay, substrate vesicles (small unilamellar vesicles or “SUVs”) composed of egg phophatidylcholine (EPC) or 1-Palmitoyl-2-oleyl-phosphatidyl-choline (POPC) and radiolabelled cholesterol are preincubated with equivalent masses either of peptide or ApoA-I (isolated from human plasma). The reaction is initiated by addition of LCAT (purified from human plasma). Native ApoA-I, which was used as positive control, represents 100% activation activity. “Specific activity” (i.e., units of activity (LCAT activation)/unit of mass) of the peptides can be calculated as the concentration of peptide that achieves maximum LCAT activation. For example, a series of concentrations of the peptide (e.g., a limiting dilution) can be assayed to determine the “specific activity” for the peptide—the concentration which achieves maximal LCAT activation (i.e., percentage conversion of cholesterol to cholesterol ester) at a specific timepoint in the assay (e.g., 1 hr.). When plotting percentage conversion of cholesterol at, e.g., 1 hr., against the concentration of peptide used, the “specific activity” can be identified as the concentration of peptide that achieves a plateau on the plotted curve.
The vesicles used in the LCAT assay are SUVs composed of egg phosphatidylcholine (EPC) or 1-palmitoyl-2-oleyl-phosphatidylcholine (POPC) and cholesterol with a molar ratio of 20:1. To prepare a vesicle stock solution sufficient for 40 assays, 7.7 mg EPC (or 7.6 mg POPC; 10 μmol), 78 μg (0.2 μmol) 4-^14C-cholesterol, 116 μg cholesterol (0.3 μmol) are dissolved in 5 ml xylene and lyophilized. Thereafter 4 ml of assay buffer is added to the dry powder and sonicated under nitrogen atmosphere at 4° C. Sonication conditions: Branson 250 sonicator, 10 mm tip, 6×5 minutes; Assay buffer: 10 mM Tris, 0.14 M NaCl, 1 mM EDTA, pH 7.4). The sonicated mixture is centrifuged 6 times for 5 minutes each time at 14,000 rpm (16,000×g) to remove titanium particles. The resulting clear solution is used for the enzyme assay.
For the LCAT purification, dextran sulfate/Mg^2+ treatment of human plasma is used to obtain lipoprotein deficient serum (LPDS), which is sequentially chromatographed on Phenylsepharose, Affigelblue, ConcanavalinA sepharose and anti-ApoA-I affinity chromatography, as summarized for a representative purification in TABLE IX, below: […]

ACTIVITY (%) LCAT [%] | Compound
0 | CC(C)C[C@H](NC(=O)[C@H](C)NC(=O)[C@H](CCC(=O)O)NC(=O)[C@H](CC(C)C)NC(=O)C(C)(C)NC(=O)[C@H](CCC(=O)O)NC(=O)[C@H](CC(N)=O)NC(=O)[C@H](CC(C)C)NC(=O)[C@H](CCCCN)NC(=O)[C@H](CCC(=O)O)NC(=O)[C@H](CCCNC(=N)N)NC(=O)[C@H](Cc1ccccc1)NC(=O)[C@H](CCC(=O)O)NC(=O)[C@H](CC(=O)O)NC(=O)[C@H](CC(C)C)NC(=O)[C@H](Cc1c[nH]cn1)NC(=O)[C@@H]1CCCN1)C(=O)N[C@@H](CCCCN)C(=O)N[C@@H](CCC(N)=O)C(=O)N[C@@H](CCCCN)C(=O)N[C@@H](CC(C)C)C(=O)N[C@@H](CCCCN)C(=O)O [compound 116, PHLDEFREKLNEXLEALKQKLK] (H-PHLDEFREKLNE[Aib]LEALKQKLK-OH)
14 | CC(C)C[C@H](NC(=O)[C@H](C)NC(=O)[C@H](CCC(=O)O)NC(=O)[C@H](CC(C)C)NC(=O)C(C)(C)NC(=O)[C@H](CCC(=O)O)NC(=O)[C@H](CCCCN)NC(=O)[C@H](CC(C)C)NC(=O)[C@H](CC(C)C)NC(=O)[C@H](CCC(=O)O)NC(=O)[C@H](CCCNC(=N)N)NC(=O)[C@H](Cc1ccccc1)NC(=O)[C@H](CCC(=O)O)NC(=O)[C@H](CC(=O)O)NC(=O)[C@H](CC(C)C)NC(=O)[C@@H](NC(=O)[C@@H]1CCCN1)C(C)C)C(=O)N[C@@H](CCCCN)C(=O)N[C@@H](CCC(N)=O)C(=O)N[C@@H](CCCCN)C(=O)N[C@@H](CC(C)C)C(=O)N[C@@H](CCCCN)C(=O)O [compound 68, PVLDEFRELLKEXLEALKQKLK] (H-PVLDEFRELLKE[Aib]LEALKQKLK-OH)
47 | PVLDLFRELLNELLELLKQKLK [compound 127]
18 | PVLELFENGLERLLDALQKKLK [compound 167]
7 | PVLELFERLLDELLNALQKKLK [compound 86]
8 | PVLELFDNLLDKLLDALQKKLR [compound 180]
30 | PVLELFLNLLERLLDWLQKKLK [compound 158]
0 | CC(C)C[C@H](NC(=O)[C@H](CCCCN)NC(=O)[C@H](CCC(N)=O)NC(=O)[C@H](CCCCN)NC(=O)[C@H](CC(C)C)NC(=O)C(C)(C)NC(=O)[C@H](CCC(=O)O)NC(=O)[C@H](CC(C)C)NC(=O)[C@H](CCC(=O)O)NC(=O)[C@H](CCC(=O)O)NC(=O)[C@H](CC(N)=O)NC(=O)[C@H](CC(C)C)NC(=O)[C@H](CCCCN)NC(=O)[C@H](CCC(=O)O)NC(=O)[C@H](CCCNC(=N)N)NC(=O)[C@H](Cc1ccccc1)NC(=O)[C@H](CCC(=O)O)NC(=O)[C@H](CC(=O)O)NC(=O)[C@H](CC(C)C)NC(=O)[C@@H](NC(=O)[C@@H]1CCCN1)C(C)C)C(=O)N[C@@H](CCCCN)C(=O)O [compound 120, PVLDEFREKLNEELEXLKQKLK] (H-PVLDEFREKLNEELE[Aib]LKQKLK-OH)
0 | Ac-PVLDLFREGLEELKQKLK-NH2 [compound 228]
105 | GVLDLFRELLNELLEALKQKLKK [peptide 2]
54 | PVLDLFRELLNELLEGLKQKLK [compound 22]
11 | Ac-EWLEAFYKKVLEKLKELF-NH2 [compound 239, reference compound]
70 | Ac-PALELFKDLLEELRQKLR-NH2 [compound 202]
0 | CC(C)C[C@H](NC(=O)[C@H](CCCCN)NC(=O)[C@H](CCC(N)=O)NC(=O)[C@H](CCCCN)NC(=O)C(C)(C)NC(=O)[C@H](C)NC(=O)[C@H](CCC(=O)O)NC(=O)[C@H](CC(C)C)NC(=O)[C@H](CCC(=O)O)NC(=O)[C@H](CCC(=O)O)NC(=O)[C@H](CC(N)=O)NC(=O)[C@H](CC(C)C)NC(=O)[C@H](CCCCN)NC(=O)[C@H](CCC(=O)O)NC(=O)[C@H](CCCNC(=N)N)NC(=O)[C@H](Cc1ccccc1)NC(=O)[C@H](CCC(=O)O)NC(=O)[C@H](CC(=O)O)NC(=O)[C@H](CC(C)C)NC(=O)[C@@H](NC(=O)[C@@H]1CCCN1)C(C)C)C(=O)N[C@@H](CCCCN)C(=O)O [compound 119, PVLDEFREKLNEELEAXKQKLK] (H-PVLDEFREKLNEELEA[Aib]KQKLK-OH)
0 | CC(C)C[C@H](NC(=O)[C@H](C)NC(=O)[C@H](CCC(=O)O)NC(=O)[C@H](CC(C)C)NC(=O)C(C)(C)NC(=O)[C@H](CCC(=O)O)NC(=O)[C@H](CC(N)=O)NC(=O)[C@H](CC(C)C)NC(=O)[C@H](CCCCN)NC(=O)[C@H](CCC(=O)O)NC(=O)[C@H](CCCNC(=N)N)NC(=O)[C@H](Cc1ccccc1)NC(=O)[C@H](CCC(=O)O)NC(=O)[C@H](CC(=O)O)NC(=O)[C@H](CC(C)C)NC(=O)[C@H](CCC(=O)O)NC(=O)[C@@H]1CCCN1)C(=O)N[C@@H](CCCCN)C(=O)N[C@@H](CCC(N)=O)C(=O)N[C@@H](CCCCN)C(=O)N[C@@H](CC(C)C)C(=O)N[C@@H](CCCCN)C(=O)O [compound 117, PELDEFREKLNEXLEALKQKLK] (H-PELDEFREKLNE[Aib]LEALKQKLK-OH)
11 | PVLELWENLLERLLDALQKKLK [compound 176]
3 | DWFKAFYDKFFEKFKEFF [peptide 247, reference compound]
20 | CC(C)C[C@H](NC(=O)[C@H](C)NC(=O)[C@H](CCC(=O)O)NC(=O)[C@H](CC(C)C)NC(=O)C(C)(C)NC(=O)[C@H](CCC(=O)O)NC(=O)[C@H](CC(N)=O)NC(=O)[C@H](CC(C)C)NC(=O)[C@H](CCCCN)NC(=O)[C@H](CCC(=O)O)NC(=O)[C@H](CCCNC(=N)N)NC(=O)[C@H](Cc1ccccc1)NC(=O)[C@H](CCC(=O)O)NC(=O)[C@H](CC(=O)O)NC(=O)[C@H](Cc1c[nH]c2ccccc12)NC(=O)[C@@H](NC(=O)[C@@H]1CCCN1)C(C)C)C(=O)N[C@@H](CCCCN)C(=O)N[C@@H](CCC(N)=O)C(=O)N[C@@H](CCCCN)C(=O)N[C@@H](CC(C)C)C(=O)N[C@@H](CCCCN)C(=O)O [compound 52, PVWDEFREKLNEXLEALKQKLK] (H-PVWDEFREKLNE[Aib]LEALKQKLK-OH)
57 | PVLDLFREGLNELLEALKQKLK [compound 20]
17 | PVLELFEQLLEKLLDALQKKLK [compound 168]
0 | CC(C)C[C@H](NC(=O)[C@H](C)NC(=O)[C@H](CCC(=O)O)NC(=O)C(C)(C)NC(=O)C(C)(C)NC(=O)[C@H](CCC(=O)O)NC(=O)[C@H](CC(N)=O)NC(=O)[C@H](CC(C)C)NC(=O)[C@H](CCCCN)NC(=O)[C@H](CCC(=O)O)NC(=O)[C@H](CCCNC(=N)N)NC(=O)[C@H](Cc1ccccc1)NC(=O)[C@H](CCC(=O)O)NC(=O)[C@H](CC(=O)O)NC(=O)[C@H](CC(C)C)NC(=O)[C@@H](NC(=O)[C@@H]1CCCN1)C(C)C)C(=O)N[C@@H](CCCCN)C(=O)N[C@@H](CCC(N)=O)C(=O)N[C@@H](CCCCN)C(=O)N[C@@H](CC(C)C)C(=O)N[C@@H](CCCCN)C(=O)O [compound 110, PVLDEFREKLNEXXEALKQKLK] (H-PVLDEFREKLNE[Aib][Aib]EALKQKLK-OH)
55 | PVLELFENLGERLLDALQKKLK [peptide 151]
8 | PVLELFDNLLERLLDALQKKLK [compound 179]

Compound | ACTIVITY (%) LCAT [%]
Ac-PLLELLKELLEELKQKLK-NH2 [compound 206] | 57
PVLDLFRNLLEELLKALEQKLK [compound 57] | 18
Ac-DVLDLFRELLEELKQKLK-NH2 [compound 221] | 12
PVLELFENLLEKLLDALQKKLK [compound 169] | 17
AVLELFENLLERLLDALQKKLK [peptide 153] | 49

same assay, conditions: LCAT activation as compared with native human ApoA-I (= 100%), equivalent masses; listed as N-acetylated, C-amidated peptide 18AM4

ACTIVITY (%) LCAT [%] | Compound
< 11 | Ac-EWLEAFYKKVLEKLKELF-NH2 [compound 239, reference compound]
